Reference: patent US6413974B1, “6,9,-disubstituted 2-[trans-(4-aminocyclohexyl) amino] purines” (Aventis Pharmaceuticals Inc., priority 1998, dated 2002)
Values joined by “and” are separate entries in the source; they are usually repeats but may differ in a detail not shown here. Equal entries are not always repeated. Structures can show the parent of a compound that is named as a salt. Where two headings read alike, the source gives them in different places.

How the values were obtained:
MDA-MB-435 = experiment: In vitro tumor cell proliferation, MDA-MB-435; assay type: cell-based, human; conditions: read-out: In vitro Tumor Cell Proliferation (IC50, μM) Breast MDA-MB-435
Procedure: (§1) The proliferation of tumor cells was measured using a sulforhodamine B assay as described in Skehan, P., et al., J. Natl. Cancer Inst. […] Tumor cells were harvested with trypsin-EDTA, cells that excluded trypan blue were counted, added to 96-well plates and incubated overnight at 37° C. Drug was added to the wells following dilution in culture medium. Three days later, the medium was removed and replenished with medium containing fresh drug and incubated an additional 4 days. The cells were then fixed with 0.1 ml 10% trichloroacetic acid for 60 min at 4° C. The plates were rinsed five times with tap water, air-dried and stained for 30 min with 0.4% sulforhodamine B in 1% acetic acid and air-dried.
(§2) Alternatively, the CyQUANT cell proliferation assay was used to quantify tumor cell proliferation. Tumor cells were harvested with trypsin-EDTA, cells that excluded trypan blue were counted, added to 96-well plates and incubated overnight at 37° C. Drug was added to the wells following dilution in culture medium. Three days later the medium was removed and the plates frozen at −80° C. for at least 30 minutes.

PC-3 = experiment: In vitro tumor cell proliferation, PC-3; assay type: cell-based, human; conditions: read-out: In vitro Tumor Cell Proliferation (IC50, μM) Prostate PC-3
Procedure: as §1, §2

cdk4/cyclin D1 = biological target: T1, cdk4/cyclin D1 (Homo sapiens, UniProt P11802); experiment: Cyclin-dependent kinase 4 Assay; assay type: biochemical; conditions: cdk4/cyclin D1, GST-Rb substrate, 10 μM ATP, 30 min at 37° C.; read-out: CDK4 Inhibition IC50
T1 construct: made in house; host or cells: Sf9 insect cells (Bac-to-Bac baculovirus, pFastBac)
T1 sequence (P11802 whole entry): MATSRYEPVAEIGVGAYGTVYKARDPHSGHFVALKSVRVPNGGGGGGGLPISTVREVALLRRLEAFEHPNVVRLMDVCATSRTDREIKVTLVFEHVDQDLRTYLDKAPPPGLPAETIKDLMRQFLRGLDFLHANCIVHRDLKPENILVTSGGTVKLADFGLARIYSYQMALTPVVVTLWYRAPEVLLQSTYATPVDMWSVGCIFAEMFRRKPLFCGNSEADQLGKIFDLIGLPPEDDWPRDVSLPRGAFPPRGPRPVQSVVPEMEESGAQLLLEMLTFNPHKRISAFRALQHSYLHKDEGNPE
T1 sequence (P24385 whole entry partner): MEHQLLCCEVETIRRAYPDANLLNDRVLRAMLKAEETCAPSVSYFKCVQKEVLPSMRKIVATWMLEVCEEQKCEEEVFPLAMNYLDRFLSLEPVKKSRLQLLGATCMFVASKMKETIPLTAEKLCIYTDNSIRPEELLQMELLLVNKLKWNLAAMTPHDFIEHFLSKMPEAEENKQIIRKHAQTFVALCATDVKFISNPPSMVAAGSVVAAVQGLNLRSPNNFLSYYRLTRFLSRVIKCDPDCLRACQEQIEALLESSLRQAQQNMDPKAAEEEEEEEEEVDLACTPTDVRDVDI
Procedure: The IC50 values for cdk-4 inhibition were by the following method:
(§3) The transformed bacteria were grown overnight to saturation, then diluted in YT broth and incubated at 37° C. for 2 h. The protein was induced by incubation with 0.1 mM isopropylthioglycoside for 3 h. Following sedimentation by centrifugation, the cells were lysed by sonication in STE buffer ([…] NaCl, 10 mM Tris, pH 8.0, 1 mM EDTA) containing 10% sarkosyl. Particulate matter was removed by centrifugation and the lysate was incubated with glutathione-Sepharose at 4° C. The beads were washed with kinase buffer and then quantitation of Coomassie blue-stained proteins separated by SDS-PAGE was performed using a protein standard of known concentration.
The cDNA for human cyclin D1 was cloned by RT PCR using […] from MCF-7 cells. […] Bacmid DNA was used to transfect Sf9 insect cells to produce recombinant virus. Following plaque purification of the virus, the viral preparations were amplified until high titer stocks were acheived.
Lysates were prepared by lysis of Sf9 cells coinfected with cdk4 and cyclin D1 in 50 mM HEPES, pH 7.5, 10 mM MgCl2, 1 mM DTT, 0.1 mM phenylmethylsulfonyl fluoride, 5 μg/ml aprotinin, and 5 μg/ml leupeptin using a PARR bomb under 500 p.s.i nitrogen pressure for 5 min at 4° C. Insoluble material was sedimented at 10,000×g for 20 min at 4° C. Glycerol was added to the supernatant to 10% and stored at −80° C. in aliquots.
(§4) Pre-wet Millipore Multiscreen 96-well filter plates (0.65 μm Durapore filters) with 200 μl kinase buffer (50 mM HEPES, pH 7.5, 10 mM MgCl2, 1 mM EGTA). GST-Rb (0.5 μg) bound to glutathione-Sepharose beads is added in 50 μl per well and the solution removed by application of vacuum. […] Add 0.1 μg cdk4/cyclin D1 (insect cell lysate) to initiate assay. Incubate 30 min at 37° C. Terminate reaction by filtration on Millipore Vacuum Manifold. Wash four times with TNEN (20 mM Tris, pH 8.0, 100 mM Na Cl, 1 mM EDTA, 0.5% nonidet P-40). After drying the plates at room temperature, the filter plates were placed in adapter plates (Packard) and 40 μl of Microscint-O® (Packard) was added to each well. Top Seal A film was used to cover the plates before counting in a Top Count Scintillation Counter.

cdk2/cyclin E = biological target: T2, cdk2/cyclin E (Homo sapiens, UniProt P24941); experiment: Cyclin-Dependent Kinase 2 Assay (cdk-2 inhibition); assay type: biochemical; conditions: GST-Rb substrate, 30 min at 30° C.
T2 construct: made in house; host or cells: insect cells (baculovirus co-infection)
Procedure: as §3, §4
GST-Rb as described above for cdk4/cyclin D1
Assay conditions for cdk2/cyclin E were identical to those for cdk4/cyclin D1 including the substrate. The concentration of recombinant cdk2/cyclin E in the assay was 0.1 μg per 100 μl assay. Incubation was for 30 min at 30° C.

A549 = experiment: In vitro tumor cell proliferation, A549; assay type: cell-based, human; conditions: read-out: In vitro Tumor Cell Proliferation (IC50, μM) Lung A549
Procedure: as §1, §2

HT-29 = experiment: In vitro tumor cell proliferation, HT-29; assay type: cell-based, human; conditions: read-out: In vitro Tumor Cell Proliferation (IC50, μM) Colon HT-29 (converted)
Procedure: as §1, §2
HT-29 is a human colon adenocarcinoma, moderately well-differentiated grade II (HTB 38);

DMS-114 = experiment: In vitro tumor cell proliferation, DMS-114; assay type: cell-based, human; conditions: read-out: In vitro Tumor Cell Proliferation (IC50, μM) Lung DMS-114
Procedure: as §1, §2

DU 145 = experiment: In vitro tumor cell proliferation, DU 145; assay type: cell-based, human; conditions: read-out: In vitro Tumor Cell Proliferation (IC50, μM) Prostate DUI45
Procedure: as §1, §2

MDA-MB-231 = experiment: In vitro tumor cell proliferation, MDA-MB-231; assay type: cell-based, human; conditions: read-out: In vitro Tumor Cell Proliferation (IC50, μM) Breast MDA-MB-231
Procedure: as §1, §2

Colo-205 = experiment: In vitro tumor cell proliferation, Colo-205; assay type: cell-based, human; conditions: read-out: In vitro Tumor Cell Proliferation (IC50, μM) Colon Colo-205
Procedure: as §1, §2

[1] = Homo sapiens, MDA-MB-435, values marked * (mark not explained)
[2] = Homo sapiens, PC-3, values marked * (mark not explained)
[3] = values marked * (mark not explained), dihydrochloride
[4] = Homo sapiens, A549, values marked * (mark not explained)
[5] = Homo sapiens, HT-29, values marked * (mark not explained)
[6] = Homo sapiens, DMS-114, values marked * (mark not explained)
[7] = Homo sapiens, DU-145, values marked * (mark not explained)
[8] = Homo sapiens, MDA-MB-231, values marked * (mark not explained)
[9] = Homo sapiens, COLO 205, values marked * (mark not explained)

Structure (SMILES) | IC50 (MDA-MB-435; [1]) | IC50 (PC-3; [2]) | IC50 (PC-3; [3]) | IC50 (cdk4/cyclin D1) | IC50 (cdk2/cyclin E) | IC50 (A549; [4]) | IC50 (A549; [3]) | IC50 (HT-29; [5]) | IC50 (HT-29; [3]) | IC50 (DMS-114; [6]) | IC50 (DMS-114; [3]) | IC50 (DU 145; [7]) | IC50 (DU 145; [3]) | IC50 (MDA-MB-231; [8]) | IC50 (MDA-MB-231; [3]) | IC50 (Colo-205; [9]) | IC50 (Colo-205; [3]) | IC50 (MDA-MB-435; [3])
CCCNc1nc(N[C@H]2CC[C@H](N)CC2)nc2c1ncn2C1CCCC1 [Example 44, 2-[Trans-(4-aminocyclohexyl)amino]-6-(propylamino)-9-cyclopentylpurine dihydrochloride] | 0.85 µM | 0.52 µM | 0.47 µM | 0.25 µM and 0.37 µM and 0.16 µM | 0.009 µM and 0.011 µM | 0.63 µM | 0.47 µM | 0.69 µM | 0.65 µM | 0.44 µM | 0.53 µM | 0.5 µM | 0.6 µM | 0.8 µM | 0.6 µM | 0.58 µM | 0.4 µM | 
NCCCCNc1nc(N[C@H]2CC[C@H](N)CC2)nc2c1ncn2C1CCCC1 [Example 5, 2-[Trans-(4-aminocyclohexyl)amino]-6-[(4-aminobutyl)amino]-9-cyclopentylpurine dihydrochloride] | 5.7 µM | 5.7 µM | 7.2 µM | 0.29 µM and 0.38 µM | 0.042 µM | 1.6 µM | 1.1 µM |  |  | 3.1 µM | 2.8 µM | 2.4 µM | 2.8 µM | 2.9 µM | 3.2 µM | 2.4 µM | 1.6 µM | 4.4 µM
CCCCCCCCNc1nc(N[C@H]2CC[C@H](N)CC2)nc2c1ncn2C1CCCC1 [Example 20, 2-[Trans-(4-aminocyclohexyl)amino]-6-(octylamino)-9-cyclopentylpurine dihydrochloride] | 2.3 µM | 1.7 µM | 1.8 µM | 2.4 µM | 0.33 µM and 0.31 µM and 0.46 µM | 1.7 µM | 1 µM | 1.9 µM | 1.7 µM | 1.1 µM | 0.95 µM | 2.4 µM | 1.9 µM | 2.7 µM | 1.9 µM | 1.9 µM | 1.4 µM | 1.8 µM
N[C@H]1CC[C@H](Nc2nc(NCc3nc4ccccc4[nH]3)c3ncn(C4CCCC4)c3n2)CC1 [Example 19, 2-[Trans-(4-aminocyclohexyl)amino]-6-[(2-benzimidazolyl)methylamino]-9-cyclopentylpurine dihydrochloride] | 2.7 µM | 1.2 µM | 1.5 µM | 0.05 µM and 0.1 µM | 0.35 µM |  |  | 2.7 µM | 2 µM | 2.7 µM | 2.9 µM | 6.4 µM | 6.1 µM | 1.9 µM | 1.7 µM | 1.3 µM | 1.4 µM | 2.3 µM
